Data published in US20170065952A1, “PICKERING EMULSION FORMULATIONS” (THE UNIVERSITY OF BIRMINGHAM, priority 2014, published 2017).
Blank lines part the entries; values can stand above or below the compound they belong to.

Columns and labels:
[1] = Release of lipophilic active B (DMP) from O/W emulsion by dialysis into external water, UV-Vis; format: physicochemical; details: O/W emulsion (tripalmitin particles 2J, WPI), after 2 days of storage
Procedure: Solid lipid particles were prepared according to Example 2J. Tripalmitin matrix contained lipophilic active A (Sudan III) and were stabilised in aqueous dispersion by WPI.
O/W emulsions were prepared according to Example 4. A model lipophilic active B (DMP-dimethyl phthalate) was added to the sunflower oil included phase.
Known quantity of the O/W emulsion (e.g. 10 g) was placed inside a pre-hydrated cellulose tube and dialysed to a known quantity of distilled water (e.g. 100 g), termed “external” water/aqueous phase. An aliquot (ca. 1 mL) of the external water was taken at time intervals, pressed through a syringe filter (0.2 μm pore size) and analysed using UV-Vis spectroscopy (at λ=290 nm). Using previously obtained calibration line and the partitioning (sunflower oil/water) data of DMP, the concentration of the released active B was calculated.

[2] = Procedure: Known quantity of the W/O emulsion (e.g. 45 g) was gently placed on the top of a known quantity of distilled water (e.g. 70 g) termed “external” water/aqueous phase. Calibrated conductivity probe was placed in the external aqueous phase and readings were taken on daily intervals.
(§1) Solid lipid particles were prepared according to Example 2C. Tripalmitin particles contained the lipophilic active (Sudan III) and were stabilised in the aqueous dispersion by Tween™ 20. After preparation the excess surfactant was dialysed off to distilled water.
W/O emulsions were prepared according to Example 3C, 3D and 3E. Hydrophilic active (NaCl) was added to the aqueous included phase and sunflower or silicone or mineral oils were used as the continuous phase.
The release of NaCl was measured as per Example 5.

[3] = Release of lipophilic active (Sudan III) from W/O emulsion into external oil phase, UV-Vis; format: physicochemical; details: W/O emulsion Example 3C (tripalmitin particles 2C, Tween 20, sunflower oil continuous phase); burst release
Procedure: as §1

[4] = Release of lipophilic active A (Sudan III) from O/W emulsion into external oil phase, UV-Vis; format: physicochemical; details: O/W emulsion (tripalmitin particles 2J, WPI, sunflower oil), observation period of 4 days
Procedure: Known quantity of the O/W emulsion (e.g. 40 g) was placed in the beaker and gently topped up with a known quantity of sunflower oil (e.g. 50 g), termed “external” oil phase. An aliquot (ca. 1 mL) of the external oil phase was taken at time intervals, pressed through a syringe filter (0.2 μm pore size) and analysed using UV-Vis spectroscopy (at λ=510 nm). Using previously obtained calibration line, the concentration of the released active A was calculated.

Compound: COC(=O)c1ccccc1C(=O)OC [DMP, dimethyl phthalate]
- release of active B from the dispersed sunflower oil phase [1]: 100%

Compound: [Cl-].[Na+] [NaCl]
- release of hydrophilic active to external water phase ([2]; W/O emulsion Example 3C, sunflower oil, over 17 days): very small
- release of hydrophilic active upon heating ([2]; W/O emulsion, heating to 40° C., fat crystals at interface melt): all dispersed water phase with NaCl is delivered to the external water phase
- release of the internal water phase with NaCl ([2]; water-in-mineral-oil emulsions (Example 3D), partially sintered particles): lower than for the non-sintered silicone oil emulsions and higher than the sintered sunflower oil emulsions
- release of NaCl to external water phase ([2]; water-in-silicone-oil emulsions (Example 3E), non-sintered particles): Relatively high release

- time of storage to complete release of lipophilic active [3]: ≤ 10 h
- release of active A from the lipid particles [4]: below 1%
Compound: Oc1ccc2ccccc2c1N=Nc1ccc(N=Nc2ccccc2)cc1 [Sudan III]
